Reference: US6767909B2, “Compounds useful for treatment or prevention of disease mediated by alpha-2B-adrenoceptor” (Oy Juvantia Pharma Ltd., priority 2001, dated 2004)

How the values were obtained:
[1] = biological target: T1, human alpha-2A-adrenoceptor (Homo sapiens, UniProt P08913); test: Human alpha-2-adrenoceptor binding affinity, 3H-rauwolscine competition binding; conditions: Mean ± SEM, membranes of Shionogi S115 cells transfected with human α2A
T1 construct: expressed in transfected cells
T1 sequence (P08913 1-465): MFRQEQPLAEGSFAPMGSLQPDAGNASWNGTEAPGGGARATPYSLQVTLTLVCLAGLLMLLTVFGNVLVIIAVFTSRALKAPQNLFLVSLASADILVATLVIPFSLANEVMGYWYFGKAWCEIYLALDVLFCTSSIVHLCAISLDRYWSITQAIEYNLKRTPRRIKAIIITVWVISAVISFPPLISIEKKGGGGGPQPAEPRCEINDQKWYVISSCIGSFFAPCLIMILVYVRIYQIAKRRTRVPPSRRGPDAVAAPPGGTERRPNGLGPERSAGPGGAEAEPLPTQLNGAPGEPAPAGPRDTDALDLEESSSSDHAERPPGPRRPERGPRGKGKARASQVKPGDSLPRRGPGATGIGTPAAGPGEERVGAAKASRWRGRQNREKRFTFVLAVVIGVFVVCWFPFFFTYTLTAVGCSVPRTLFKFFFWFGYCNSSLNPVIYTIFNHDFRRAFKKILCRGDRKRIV
Description: (§1) Results expressed in the form of “>” means that no numerical values for Ki's could be established due to lack of displacement or due to incomplete competition curves.
(§2) Human Alpha-2-adrenoceptor Binding Affinity
(§3) After 30 min at room temperature, incubations were terminated by rapid vacuum filtration through GF/B glass fiber filter and three 5 ml washes with ice-cold incubation buffer. The filters were then dried, impregnated with scintillate and their radioactivity was measured by scintillation counting. The analysis of the experiments was carried out by non-linear least square curve fitting. Experimentally determined IC50 values were converted to Ki's by making use of the Cheng-Prusoff equation (Cheng and Prusoff, 1973). Experiments were repeated a minimum of three times. to the incubation mixture. After an additional 60 min at room temperature, the incubation was terminated by rapid vacuum filtration through glass fibre filter. Filters were washed three times with 5 ml ice cold wash buffer (20 mM Tris, 5 mM MgCl2, 1 mM EDTA pH 7.4 at room temperature), dried and counted for radioactivity in a scintiallation counter. Analysis of experiments was carried out by non-linear least square fitting. Results are based on a minimum of three experiments.

[2] = biological target: T2, human alpha-2B-adrenoceptor (Homo sapiens, UniProt P18089); test: as above; conditions: Mean ± SEM, membranes of Shionogi S115 cells transfected with human α2B
T2 construct: expressed in transfected cells
T2 sequence (P18089 1-450): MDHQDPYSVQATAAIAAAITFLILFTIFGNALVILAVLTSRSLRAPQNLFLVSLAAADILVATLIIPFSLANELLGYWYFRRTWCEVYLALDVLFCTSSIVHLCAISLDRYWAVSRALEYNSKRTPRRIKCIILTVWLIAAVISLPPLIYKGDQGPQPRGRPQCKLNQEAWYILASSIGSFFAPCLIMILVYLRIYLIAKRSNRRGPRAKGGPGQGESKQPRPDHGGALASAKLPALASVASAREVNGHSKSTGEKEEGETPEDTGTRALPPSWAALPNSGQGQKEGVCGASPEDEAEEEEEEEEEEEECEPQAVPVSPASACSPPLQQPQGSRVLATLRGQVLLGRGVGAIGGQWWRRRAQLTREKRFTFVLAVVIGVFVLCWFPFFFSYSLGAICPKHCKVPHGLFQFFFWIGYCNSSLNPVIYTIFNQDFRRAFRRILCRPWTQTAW
Description: as §1, §2
as §3, with “Experimentally determined IC50 values were converted to Ki's by making use of the Cheng-Prusoff equation (Cheng and Prusoff, 1973).” left out

[3] = biological target: T3, human alpha-2C-adrenoceptor (Homo sapiens, UniProt P18825); test: as above; conditions: Mean ± SEM, membranes of Shionogi S115 cells transfected with human α2C
T3 construct: expressed in transfected cells
T3 sequence (P18825 1-462): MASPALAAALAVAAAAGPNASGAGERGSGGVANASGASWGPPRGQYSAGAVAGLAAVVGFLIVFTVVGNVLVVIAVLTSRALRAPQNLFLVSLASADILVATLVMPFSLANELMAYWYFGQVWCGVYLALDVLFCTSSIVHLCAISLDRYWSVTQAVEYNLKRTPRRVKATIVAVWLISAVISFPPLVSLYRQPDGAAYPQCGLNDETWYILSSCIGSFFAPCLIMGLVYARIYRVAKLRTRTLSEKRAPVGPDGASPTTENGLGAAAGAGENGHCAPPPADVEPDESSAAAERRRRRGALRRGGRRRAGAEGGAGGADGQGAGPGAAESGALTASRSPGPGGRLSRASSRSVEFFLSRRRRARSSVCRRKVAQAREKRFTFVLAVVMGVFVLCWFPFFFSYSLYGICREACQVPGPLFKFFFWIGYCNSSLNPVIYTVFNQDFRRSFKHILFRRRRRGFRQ
Description: as §1, §2
as §3, with “Experimentally determined IC50 values were converted to Ki's by making use of the Cheng-Prusoff equation (Cheng and Prusoff, 1973).” left out

[4] = biological target: T2, human alpha-2B-adrenoceptor; test: Antagonist activity: inhibition of epinephrine-stimulated 35S-GTPγS binding; format: biochemical; conditions: Mean ± SEM; CHO cell membranes, human α2B; 15 μM epinephrine; read-out: KB alpha-2B antagonist effect
Description: (§4) Antagonist Activity on Human Alpha-2-adrenoceptor Subtypes
as §3, with “Experimentally determined IC50 values were converted to Ki's by making use of the Cheng-Prusoff equation (Cheng and Prusoff, 1973).” left out

[5] = biological target: T3, human alpha-2C-adrenoceptor; test: as above; format: biochemical; conditions: Mean ± SEM; CHO cell membranes, human α2C; 5 μM epinephrine; read-out: KB alpha-2C antagonist effect
Description: as §4
as §3, with “Experimentally determined IC50 values were converted to Ki's by making use of the Cheng-Prusoff equation (Cheng and Prusoff, 1973).” left out

[6] = biological target: T1, human alpha-2A-adrenoceptor; test: as above; format: biochemical; conditions: Mean ± SEM; CHO cell membranes, human α2A; 5 μM epinephrine; read-out: KB alpha-2A antagonist effect
Description: as §4
Membranes (2-6 μg of protein per sample) and 12 concentrations of test compound were preincubated for 30 min with a fixed concentration fo epinephrine (5 μM for α2A, 15 μM for α2B, 5 μM for α2C) in 50 mM Tris, 5 mM MgCl2, 150 mM NaCl, 1 mM DTT, 1 mM EDTA, 10 μM GDP, 30 μM ascorbic acid, pH 7.4 at room temperature. Binding of radiolabel was started by the addition of trace amounts of ^35S-GTPγS (0.08-0.15 nM, specific activity 1250 Ci/mmol)
as §3

Row | Ki [1] [µM] | Ki [2] [µM] | Ki [3] [µM] | Kb [4] [µM] | Kb [5] [µM] | Kb [6] [µM] | SMILES
1 | > 13 | 0.16 ± 0.02 | > 30 | – | – | – | Cc1cc(C)nc(NS(=O)(=O)c2ccc(NCc3nc4ccccc4n3CC(C)C)cc2)n1 [Compound A, N-(4,6-Dimethylpyrimidin-2-yl)-4-[(1-isobutyl-1H-benzimidazol-2-ylmethyl)-amino]-benzenesulfonamide]
2 | 2.2 ± 0.6 | 0.032 ± 0.005 | > 10 | 0.086 ± 0.064 | 4.7 ± 1.8 | 3.2 ± 0.5 | COc1ccccc1CCNc1ccc(S(=O)(=O)Nc2nc(C)cc(C)n2)cc1 [Compound G, N-(4,6-Dimethylpyrimidin-2-yl)-4-[2-(2-methoxyphenyl)-ethylamino]-benzenesulfonamide]
3 | > 4.5 | 0.034 ± 0.002 | > 10 | 0.075 ± 0.009 | 5.7 ± 0.7 | 14.5 ± 3.6 | Cc1cc(C)nc(NS(=O)(=O)c2ccc(NCc3ccccc3C)cc2)n1 [Compound B, N-(4,6-Dimethylpyrimidin-2-yl)-4-(2-methylbenzylamino)-benzenesulfonamide]
4 | > 4.3 | 0.043 ± 0.007 | > 10 | 0.24 ± 0.06 | 12 ± 2 | 8.7 ± 1.1 | CCn1cc(CNc2ccc(S(=O)(=O)Nc3nc(C)cc(C)n3)cc2)c2ccccc21 [Compound F, N-(4,6-Dimethylpyrimidin-2-yl)-4-[(1-ethyl-1H-indol-3-ylmethyl)-amino]-benzenesulfonamide]
5 | 2 ± 0.4 | – | > 10 | – | 6.3 ± 1.4 | 5.4 ± 1.4 | Cc1cc(C)nc(NS(=O)(=O)c2ccc(NCc3c(Cl)cccc3Cl)cc2)n1 [Compound C, 4-(2,6Dichlorobenzylamino)-N-(4,6-dimethylpyrimidin-2-yl)-benzenesulfonamide]
6 | > 30 | 8 ± 0.5 | > 30 | – | – | – | Cc1cc(C)nc(NS(=O)(=O)c2ccc(NC(c3ccccc3)c3ccccc3)cc2)n1 [Compound H, 4-(Benzhydrylamino)-N-(4,6-dimethylpyrimidin-2-yl)-benzenesulfonamide]
7 | > 10 | 0.44 ± 0.07 | > 10 | – | – | – | Cc1cc(C)nc(NS(=O)(=O)c2ccc(NCc3ccc4ccccc4c3)cc2)n1 [Compound D, N-(4,6-Dimethylpyrimidin-2-yl)-4-[(naphthalen-2-ylmethyl)-amino]-benzenesulfonamide]
8 | > 5.1 | 0.02 ± 0.004 | > 10 | 0.029 ± 0.005 | 7.3 ± 1.1 | 7.9 ± 3.1 | COc1cccc(CNc2ccc(S(=O)(=O)Nc3nc(C)cc(C)n3)cc2)c1 [Compound E, N-(4,6-Dimethylpyrimidin-2yl-)4(3-methoxybenzylamino)-benzenesulfonamide]
